According to ChEMBL document CHEMBL3817847, “Design and synthesis of fused soluble epoxide hydrolase/peroxisome proliferator-activated receptor modulators” (Medchemcomm, 2016):
pEC50, pIC50: −log10 of the molar value. Activity calls are given as the source filed them. The rule behind the calls is not given here.

Legend:
[1] = molecular target: T1, Peroxisome proliferator-activated receptor delta (Homo sapiens, UniProt Q03181); experiment: Agonist activity at Gal4-tagged human PPARdelta ligand binding domain expressed in COS-7 cells measured after overnight incubation by dual-glo luciferase reporter gene assay; type: cell-based; conditions: for EC50: cos-7
T1 sequence (Q03181 whole entry): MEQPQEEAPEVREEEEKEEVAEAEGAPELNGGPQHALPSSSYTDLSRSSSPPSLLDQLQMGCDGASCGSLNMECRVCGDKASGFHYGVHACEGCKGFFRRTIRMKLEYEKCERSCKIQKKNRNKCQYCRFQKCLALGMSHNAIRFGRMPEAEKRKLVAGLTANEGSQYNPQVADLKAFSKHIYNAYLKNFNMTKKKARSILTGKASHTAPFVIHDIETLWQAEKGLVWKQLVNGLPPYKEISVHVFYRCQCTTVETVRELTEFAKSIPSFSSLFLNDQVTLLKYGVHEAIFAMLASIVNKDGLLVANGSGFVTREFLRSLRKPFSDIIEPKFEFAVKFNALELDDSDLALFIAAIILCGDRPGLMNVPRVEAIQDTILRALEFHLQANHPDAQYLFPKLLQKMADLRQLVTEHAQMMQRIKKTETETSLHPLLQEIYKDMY

[2] = molecular target: T2, Bifunctional epoxide hydrolase 2 (Homo sapiens, UniProt P34913); experiment: Inhibition of recombinant human […] assessed as product formation preincubated for 30 mins followed by addition of (3-phenyl-cyano-(6-methoxy-2-naphthalenyl)methyl ester-2-oxirane-acetic acid as substrate measured after 30 mins by fluorescence analysis; conditions: for pIC50: read-out: IC50
T2 sequence (P34913 whole entry): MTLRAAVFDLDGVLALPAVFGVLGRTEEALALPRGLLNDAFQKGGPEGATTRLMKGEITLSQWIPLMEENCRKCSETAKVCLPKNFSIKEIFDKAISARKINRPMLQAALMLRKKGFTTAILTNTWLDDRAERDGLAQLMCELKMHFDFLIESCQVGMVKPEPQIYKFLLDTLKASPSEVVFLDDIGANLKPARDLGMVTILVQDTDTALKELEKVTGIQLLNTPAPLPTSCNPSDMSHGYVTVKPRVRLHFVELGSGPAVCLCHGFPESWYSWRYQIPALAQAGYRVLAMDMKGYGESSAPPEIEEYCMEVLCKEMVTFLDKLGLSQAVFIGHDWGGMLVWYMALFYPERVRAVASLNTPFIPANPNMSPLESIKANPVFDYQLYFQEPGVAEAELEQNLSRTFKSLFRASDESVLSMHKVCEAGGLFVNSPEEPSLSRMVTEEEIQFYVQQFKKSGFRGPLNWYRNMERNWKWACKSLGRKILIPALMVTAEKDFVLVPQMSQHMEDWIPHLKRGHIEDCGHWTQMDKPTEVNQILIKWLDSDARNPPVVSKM

[3] = molecular target: T3, Peroxisome proliferator-activated receptor gamma (Homo sapiens, UniProt P37231); experiment: Agonist activity at Gal4-tagged human PPARgamma ligand binding domain expressed in COS-7 cells measured after overnight incubation by dual-glo luciferase reporter gene assay; type: cell-based; conditions: for EC50: cos-7; for pEC50: read-out: EC50
T3 sequence (P37231 whole entry): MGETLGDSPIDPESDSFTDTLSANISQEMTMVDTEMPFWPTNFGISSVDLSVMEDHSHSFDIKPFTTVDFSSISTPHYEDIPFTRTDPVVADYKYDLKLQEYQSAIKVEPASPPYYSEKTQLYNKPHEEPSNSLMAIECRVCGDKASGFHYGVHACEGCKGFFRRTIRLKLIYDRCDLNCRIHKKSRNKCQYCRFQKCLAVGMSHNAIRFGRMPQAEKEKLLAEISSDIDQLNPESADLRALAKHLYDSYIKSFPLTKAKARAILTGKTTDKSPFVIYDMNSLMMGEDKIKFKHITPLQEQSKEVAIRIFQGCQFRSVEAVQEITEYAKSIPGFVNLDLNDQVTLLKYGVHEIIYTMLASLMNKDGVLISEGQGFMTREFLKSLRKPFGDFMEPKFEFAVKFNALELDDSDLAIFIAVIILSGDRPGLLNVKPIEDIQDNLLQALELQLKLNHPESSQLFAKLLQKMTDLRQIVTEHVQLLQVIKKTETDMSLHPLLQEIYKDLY

[4] = molecular target: T4, Peroxisome proliferator-activated receptor alpha (Homo sapiens, UniProt Q07869); experiment: Agonist activity at Gal4-tagged human PPARalpha ligand binding domain expressed in COS-7 cells measured after overnight incubation by dual-glo luciferase reporter gene assay; type: cell-based; conditions: for EC50: cos-7; for pEC50: read-out: EC50
T4 sequence (Q07869 whole entry): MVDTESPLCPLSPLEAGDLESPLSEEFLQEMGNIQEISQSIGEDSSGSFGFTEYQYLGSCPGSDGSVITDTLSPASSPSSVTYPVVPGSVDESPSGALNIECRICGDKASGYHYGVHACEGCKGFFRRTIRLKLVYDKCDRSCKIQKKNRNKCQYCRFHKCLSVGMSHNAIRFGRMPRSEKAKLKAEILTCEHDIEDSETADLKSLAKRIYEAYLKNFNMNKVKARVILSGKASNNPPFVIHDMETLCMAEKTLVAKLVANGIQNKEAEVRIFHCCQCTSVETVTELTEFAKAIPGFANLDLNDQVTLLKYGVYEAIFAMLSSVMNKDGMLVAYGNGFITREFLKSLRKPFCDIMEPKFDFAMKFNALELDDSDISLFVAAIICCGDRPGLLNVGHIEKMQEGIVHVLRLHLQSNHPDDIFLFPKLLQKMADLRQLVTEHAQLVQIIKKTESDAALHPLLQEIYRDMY

[5] = molecular target: T5, Peroxisome proliferator-activated receptor alpha (Homo sapiens) (UniProt Q07869); experiment: Agonist activity at Gal4-tagged human PPARalpha ligand binding domain expressed in COS-7 cells at 10 um measured after overnight incubation by dual-glo luciferase reporter gene assay; type: cell-based
T5 sequence (whole entry): T4 sequence (Q07869 whole entry)

[6] = molecular target: T6, Peroxisome proliferator-activated receptor delta (Homo sapiens) (UniProt Q03181); experiment: Agonist activity at Gal4-tagged human PPARdelta ligand binding domain expressed in COS-7 cells at 30 uM measured after overnight incubation by dual-glo luciferase reporter gene assay; type: cell-based
T6 sequence (whole entry): T1 sequence (Q03181 whole entry)

[7] = molecular target: T7, Peroxisome proliferator-activated receptor gamma (Homo sapiens) (UniProt P37231); experiment: Agonist activity at Gal4-tagged human PPARgamma ligand binding domain expressed in COS-7 cells at 30 uM measured after overnight incubation by dual-glo luciferase reporter gene assay; type: cell-based
T7 sequence (whole entry): T3 sequence (P37231 whole entry)

[8] = molecular target: T5, Peroxisome proliferator-activated receptor alpha (Homo sapiens); experiment: Agonist activity at Gal4-tagged human PPARalpha ligand binding domain expressed in COS-7 cells at 30 uM measured after overnight incubation by dual-glo luciferase reporter gene assay; type: cell-based
3T3-L1 [9] = experiment: Agonist activity at PPAR in mouse 3T3L1 cells assessed as increase in adipocyte differentiation at 2 uM after 14 days by Oil Red O staining method; type: cell-based
[10] = molecular target: T7, Peroxisome proliferator-activated receptor gamma (Homo sapiens); experiment: Agonist activity at Gal4-tagged human PPARgamma ligand binding domain expressed in COS-7 cells at 10 uM measured after overnight incubation by dual-glo luciferase reporter gene assay; type: cell-based
3T3-L1 [11] = experiment: Partial agonist activity at PPAR in mouse 3T3L1 cells assessed as increase in adipocyte differentiation after 14 days by Oil Red O staining method; type: cell-based

## CCC(Cc1ccc(N2CCC(C(=O)NCc3ccccc3C(F)(F)F)CC2)cc1)C(=O)O (configuration not stated)
[1]
  EC50: Not Active
[2]
  pIC50: 7.12
[3]
  EC50: Not Active
[4]
  EC50: Not Active

## CCCCCCC(Sc1nc(Cl)cc(N2CCC(C(=O)NCc3ccccc3C(F)(F)F)CC2)n1)C(=O)O (configuration not stated)
[5]
  Emax: 65%
[1]
  EC50: Not Active
[2]
  pIC50: 6.52
[3]
  EC50: Not Active

## CC(Oc1ccc(CCNC(=O)Nc2ccc(Cl)cc2)cc1)C(=O)O (configuration not stated)
[6]
  Activity: inactive
[2]
  pIC50: 6.24
[7]
  Activity: inactive
[8]
  Activity: inactive

## CCOC(=O)C(CC)Cc1ccc(N2CCC(C(=O)NCc3ccccc3C(F)(F)F)CC2)cc1 (configuration not stated)
[1]
  EC50: Not Active
[2]
  pIC50: 7.64
[3]
  EC50: Not Active
[4]
  EC50: Not Active

## CCCCCCC(Sc1nc(Cl)cc(Nc2ccc(Nc3ccccc3)cc2)n1)C(=O)O (configuration not stated)
[1]
  EC50: Not Active
[2]
  IC50: Not Active
[4]
  pEC50: 7.17

## CCOC(=O)C(C)Oc1ccc(CCNC(=O)Nc2ccc(Cl)cc2)cc1 (configuration not stated)
[6]
  Activity: inactive
[2]
  pIC50: 7.57
[7]
  Activity: inactive
[8]
  Activity: inactive

## CNc1nc(C)nc(N[C@H]2CCC[C@@H](C(=O)NCc3ccc(C#N)cc3C(F)(F)F)C2)n1 [GSK2256294]
[1]
  EC50: Not Active
[3]
  EC50: Not Active
[4]
  EC50: Not Active

## CN(CCOc1ccc(CC2SC(=O)NC2=O)cc1)c1ccccn1 (configuration not stated)
3T3-L1 [9]
  Activity: Active

## CCOC(=O)/C(=C/c1ccc(N2CCC(C(=O)NCc3ccccc3C(F)(F)F)CC2)cc1)CC
[1]
  EC50: Not Active
[2]
  pIC50: 7.40
[3]
  EC50: Not Active
[4]
  EC50: Not Active

## O=C(Nc1ccc(I)cc1)NC1CCCCC1
[1]
  EC50: Not Active
[10]
  Emax: 22%
[4]
  EC50: Not Active

## CCCCCCC(Sc1nc(Cl)cc(NCCCC(=O)NCc2ccccc2C(F)(F)F)n1)C(=O)OCC (configuration not stated)
[1]
  EC50: Not Active
[2]
  pIC50: 5.89
[3]
  EC50: Not Active
[4]
  EC50: Not Active

## CC(C)(Oc1ccc(CCNC(=O)c2ccc(Cl)cc2)cc1)C(=O)O [BEZAFIBRATE]
[1]; read-out: EC50
  pEC50: 4.65
[2]
  IC50: Not Active
[3]
  pEC50: 4.81

## CCCCCCC(Sc1nc(Cl)cc(N2CCC(C(=O)NCc3ccccc3C(F)(F)F)CC2)n1)C(=O)OCC (configuration not stated)
[1]
  EC50: Not Active
[2]
  pIC50: 5.60
[3]
  EC50: Not Active
[4]
  EC50: Not Active

## CCOC(=O)C(C)Oc1ccc(CNC(=O)Nc2ccc(Cl)cc2)cc1 (configuration not stated)
[6]
  Activity: inactive
[2]
  pIC50: 7.19
[7]
  Activity: inactive
[8]
  Activity: inactive

## CCCCCCC(Sc1nc(Cl)cc(NCCCC(=O)NCc2ccccc2C(F)(F)F)n1)C(=O)O (configuration not stated)
[1]
  EC50: Not Active
[2]
  pIC50: 5.92
[3]
  pEC50: 5.22
[4]
  pEC50: 5.60
3T3-L1 [11]
  Activity: Dose-dependent effect

## CC(Oc1ccc(CNC(=O)Nc2ccc(Cl)cc2)cc1)C(=O)O (configuration not stated)
[6]
  Activity: inactive
[2]
  pIC50: 6.07
[7]
  Activity: inactive
[8]
  Activity: inactive

## CC/C(=C\c1ccc(N2CCC(C(=O)NCc3ccccc3C(F)(F)F)CC2)cc1)C(=O)O
[1]
  EC50: Not Active
[2]
  pIC50: 7.57
[3]
  EC50: Not Active
[4]
  EC50: Not Active
